Experimental data published in PubChem BioAssay (NCI).
“And” between values parts separate entries of the source, which are not always exact repeats. Equal entries are not always repeated.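 Values below derive from 48-hour exposures of cells grown in 96-well plates, with endpoints linearly interpolated between the two concentrations bracketing the appropriate inhibition level. Abbreviation: GI50, concentration required for 50% inhibition of growth. TGI marks complete inhibition of growth.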

Legend:
Test in all cases: inhibition of tumour cell growth, NCI panel, 48 h
[1] = system: OVCAR-3 ovarian
[2] = system: MALME-3M melanoma
[3] = system: SK-OV-3 ovarian
[4] = system: SF-268 CNS
[5] = system: IGROV1 ovarian
[6] = system: OVCAR-8 ovarian
[7] = system: CAKI-1 renal
[8] = system: HCT-15 colon
[9] = system: UO-31 renal
[10] = system: SN12C renal

Structure (SMILES) | TGI [1] | TGI [2] [µM] | TGI [3] | TGI [4] [µM] | TGI [5] [µM] | TGI [6] [µM] | TGI [7] [µM] | TGI [8] [µM] | TGI [9] | TGI [10] [µM] | GI50 [1] | GI50 [2] [µM] | GI50 [3] | GI50 [4] | GI50 [5] | GI50 [6] | GI50 [7] | GI50 [8] [µM] | GI50 [9] | GI50 [10]
C=C1C(=O)OC2/C=C(\C)C3OC3/C=C(/C(=O)OC)C(OC(C)=O)C(OC(=O)C(C)(O)C(C)OC(C)=O)C12 (stereo not drawn) | 13.9 µM | 7.88 | 33 µM | 34.1 | 5.71 | 6.92 | 16.3 | > 34.1 | 15 µM | 7.02 |  |  |  |  |  |  |  |  |  | 
CN(C)/C=N/c1nc2ncn(CCOC(=O)c3ccccc3)c2c(=O)[nH]1 | > 100 µM | > 100 | > 100 µM | > 100 | > 100 | > 100 | > 100 | > 100 | > 100 µM | > 100 |  |  |  |  |  |  |  |  |  | 
CCSc1nc2n(c(=S)n1)CCN2C | 49.3 µM | 36.2 | 50.2 µM | 65.8 | 45.9 | 64.7 | 55.4 | 40.6 | 58.9 µM | 47.8 |  |  |  |  |  |  |  |  |  | 
O=C1OC2C(O)C(=O)OC2C1O (stereo not drawn) | > 100 µM | > 100 | > 100 µM | > 100 | > 100 | > 100 | > 100 | > 100 | > 100 µM | > 100 |  |  |  |  |  |  |  |  |  | 
Cc1cc2c(cc1C)[n+](=O)c(C(=O)/C=C/c1ccccc1Cl)c(C)n2[O-] | 88.8 µM | 94.5 | 73.1 µM | 95.9 | 37.9 | 63.8 | 43.2 | 75.3 | 48.2 µM | > 100 |  |  |  |  |  |  |  |  |  | 
C[C@@]1(N2C(=O)OC[C@@H]2c2ccccc2)C(=O)N([C@H](CC(=O)N2CCC(N3CCCCC3)CC2)C(=O)NCc2cccc(C(F)(F)F)c2)[C@@H]1/C=C/c1ccccc1 | 3.91 µM | 3.54 | 4.83 µM | 3.94 | 8.49 | 7.24 | 6.55 | 3.62 | 3.52 µM | 4.31 | 1.85 µM | 1.83 | 2.09 µM | 1.76 µM | 2.73 µM | 2.77 µM | 2.3 µM | 1.79 | 1.79 µM | 2 µM
Oc1cc2ccccc2cc1-c1n[nH]c(=S)n1-c1ccc(Cl)cc1 | > 100 µM | > 100 | > 100 µM | 32.9 | 7.67 | > 100 | 39.4 | > 100 | 71.8 µM | 55.2 | 20.3 µM | 8.85 | 28.6 µM | 6.46 µM | 1.31 µM | 38.4 µM | 12.5 µM | 7.96 | 23.2 µM | 10.8 µM
O=C(O)/C=C\C(=O)Nc1ccc2c(c1)C(=O)c1cc(F)ccc1-2 | > 100 µM | > 100 | > 100 µM | > 100 | > 100 | > 100 | > 100 | > 100 | > 100 µM | > 100 |  |  |  |  |  |  |  |  |  | 
CC(=O)OCC1OC(n2c(-c3ccccc3)c(C)c(C)c(C#N)c2=S)C(OC(C)=O)C(OC(C)=O)C1OC(C)=O (stereo not drawn) | > 100 µM | > 100 | 48.8 µM and > 100 µM | > 100 | > 100 | > 100 | > 50 | > 100 | > 50 µM and 37.9 µM | > 100 |  |  | 13.2 µM and > 100 µM | 18.3 µM and 93.3 µM |  | 17.6 µM and > 100 µM |  |  | > 50 µM and 12 µM | 48.3 µM and > 100 µM
O=C(Nc1ccc(Br)cc1F)c1cc(Br)ccc1O | 8.62 µM | 1.82 | 8.12 µM | 11.6 | 15.3 | 15.4 | 4.11 | 7.32 | 2.8 µM | 6.39 | 0.535 µM | 0.32 | 1.62 µM | 0.716 µM | 0.4 µM | 0.959 µM | 0.456 µM | 0.731 | 0.4 µM | 0.519 µM
O=C([O-])c1ccccc1Nc1ccccc1[O-].[Ni+3].[OH3+].[OH3+].[OH3+] | > 100 µM | > 100 | > 100 µM | > 100 | > 100 | > 100 | > 100 | > 100 | > 100 µM | > 100 | > 100 µM | > 100 | > 100 µM | > 100 µM | > 100 µM | > 100 µM | > 100 µM | > 100 | > 100 µM | > 100 µM
COc1ccc(/C=C/C(=O)c2ccc(Nc3ccnc4cc(Cl)ccc34)cc2)cc1 | > 100 µM | > 100 | > 100 µM | > 100 | > 100 | > 100 | > 100 | > 100 | > 100 µM | > 100 | > 100 µM | > 100 | > 100 µM | > 100 µM | > 100 µM | > 100 µM | > 100 µM | > 100 | > 100 µM | > 100 µM
CC/C=C\C/C=C\C[C@H]1C/C=C2/C(=O)C=C[C@H]2C/C=C\CCC(=O)O1 | 5.01 µM | 8.8 | > 14.3 µM | 10.4 | 11.8 | > 14.3 | 8.58 | 6 | 4.96 µM | 8.77 | 2.11 µM | 2.85 | 10 µM | 3.31 µM | 3.71 µM | 4.73 µM | 3.13 µM | 2.23 | 2.23 µM | 3.46 µM
CC1(C)OC(=O)C(=C2CC(c3ccccc3)c3ccccc32)C(=O)O1 (stereo not drawn) | > 100 µM | > 100 | > 100 µM | > 100 | > 100 | > 100 | > 100 | > 100 | > 100 µM | > 100 |  |  |  |  |  |  |  |  |  | 
NC[C@@](O)(c1ccc(Cl)cc1)c1ccc(-c2cn[nH]c2)cc1 | > 25.6 µM and 4.44 µM | 3.08 | > 10 µM | > 100 | 1.46 | 3.43 |  | 2.7 |  | > 100 | 3.22 µM and 1.96 µM | 1.57 | 2.23 µM | 1.24 µM and 1.28 µM | 0.43 µM and 0.272 µM | 1.63 µM | 0.73 µM and 1.27 µM | 0.867 | 0.583 µM and 0.747 µM | 2.39 µM and 1.88 µM
